In patent publication US9718790B2, “Triazine derivative and pharmaceutical composition having an analgesic activity comprising the same” (SHIONOGI & CO., LTD., priority 2010, dated 2017) one finds IC50 and solubility data, which are given here for three compounds.

Molecules are shown by their SMILES. pIC50: −log10 of the molar value. A value given as a limit tells only on which side of the number the result lay.

In data set [1] the target is rat P2X3 receptor (Rattus norvegicus (Rat), UniProt P49654). Nature of the data set: Evaluation of rat P2X3 receptor inhibitory activity (Fluo-3 calcium fluorescence, FDSS 3000, ATP stimulation). Type of data set: cell-based. As for the experimental part: Rat P2X3 receptor gene (GenBank accession number NM_031075) was expressed in C6BU-1 cell. The cells stably expressing rat P2X3 were seeded in a 96-well microtiter plate at a concentration of 8000 cells/well and cultured in the medium (8.3% fetal bovine serum. 8.3% horse serum, 1% antibiotic and antifungal in DMEM) for one day at 37° C. under 5% carbon dioxide atmosphere. In transiently expressing system, the C6BU-1 cells were seeded in a […] at a concentration of 2500 cells/well and cultured in the medium for one day at 37° C. under 5% carbon dioxide atmosphere. The plasmid was transfected into the cells using transfection reagent FuGENE6 (Roche). The transfected cells were cultured in the medium for one day at 37° C. under 5% carbon dioxide atmosphere. […] Measurement of fluorescence intensity by FDSS 3000 was started, and 40 μL of DMSO solutions containing different concentrations of the test compound as prepared by dilution with dilution buffer (20 mM HEPES, 137 mM NaCl, 2.7 mM KCl, 0.9 mM MgCl2, 5.0 mM CaCl2, 5.6 mM D-glucose, 2.5 mM probenecid, 0.1% Pluronic F-127, pH 7.5) were dispensed to each well through the built-in automatic dispenser. Five minutes after, […] ATP solution (50 μL) prepared by dilution with the dilution buffer was dispensed through the built-in automatic dispenser, and the measurement of fluorescence intensity was continued for 3 min. For each well, the specific maximum fluorescence intensity was calculated as the ratio of the maximum fluorescence intensity after addition of the ATP solution to the fluorescence intensity at the starting of the measurement. […] FDSS software (Hamamatsu Photonics K.K.) was used for calculation of the specific maximum fluorescence intensity. IC50 was calculated using Microsoft Excel (Microsoft Corporation) and XLfit (idbs Ltd.).
rat P2X3 receptor, sequence (P49654 whole entry): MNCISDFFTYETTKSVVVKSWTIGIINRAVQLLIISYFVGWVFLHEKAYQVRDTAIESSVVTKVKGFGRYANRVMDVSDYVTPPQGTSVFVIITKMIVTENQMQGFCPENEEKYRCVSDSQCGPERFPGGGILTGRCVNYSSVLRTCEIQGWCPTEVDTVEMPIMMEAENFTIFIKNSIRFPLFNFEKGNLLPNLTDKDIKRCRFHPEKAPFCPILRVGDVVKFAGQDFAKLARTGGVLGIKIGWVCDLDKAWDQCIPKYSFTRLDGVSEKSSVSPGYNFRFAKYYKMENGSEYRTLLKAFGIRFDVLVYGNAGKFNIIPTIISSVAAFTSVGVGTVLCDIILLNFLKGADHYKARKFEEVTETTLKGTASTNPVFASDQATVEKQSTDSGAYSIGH

For data set [2], the target named is CYP2C9 (Homo sapiens (Human), UniProt P11712). Nature of the data set: CYP inhibition test, pooled human hepatic microsome, tolbutamide methyl-hydroxylation. Type of data set: in vitro ADME. As to conditions: substrate tolbutamide. On the procedure:
(§1) Using commercially available pooled human hepatic microsome, and employlng, as markers, 7-ethoxyresorufin O-deethylation (CYP1A2), tolbutamide methyl-hydroxylation (CYP2C9), mephenyloin 4′-hydroxylation (CYP2C19), dextromethorphan O-demethylation (CYP2D6), and terfenedine hydroxylation as typical substrate metabolism reactions of human main five CYP enzyme forms (CYP1A2, 2C9, 2C19, 2D6, 3A4), an inhibitory degree of each metabolite production amount by a test compound was assessed.
(§2) The reaction conditions were as follows: substrate, 0.5 μmol/L ethoxyresorufin (CYP1A2), 100 μmol/L tolbutamide (CYP2C9), 50 μmol/L S-mephenitoin (CYP2C19), 5 μmol/L dextromethorphan (CYP2D6), 1 μmol/L terfenedine (CYP3A4) reaction time, 15 minutes; reaction temperature, 37° C; enzyme, pooled human hepatic microsome 0.2 mg protein/mL; test drug concentration, 1.0, 5.0, 10, 20 μmol/L (four points).
(§3) Each five kinds of substrates, human hepatic microsome, or a test drug in 50 mmol/L Hepes buffer as a reaction solution was added to a 96-well plate at the composition as described above, NADPH, as a cofactor was added to initiate metabolism reactions as markers and, after the incubation at 37° C. for 15 minutes, a methanol/acetonitrile=1/1 (v/v) solution was added to stop the reaction. After the centrifugation at 3000 rpm for 15 minutes, resorufin (CYP1A2 metabolite) in the supernatant was quantified by a fluorescent multilabel counter and tributamide hydroxide (CYP2CP metabolite), mephenyloin 4′ hydroxide (CYP2C19 metabolite), […] (CYP2D6 metabolite), and terfenadine alcohol (CYP3A4 metabolite) were quantified by LC/MS/MS.

The target of data set [3] is CYP2C19 (Homo sapiens (Human), UniProt P33261). Put plainly: CYP inhibition test, pooled human hepatic microsome, mephenytoin 4'-hydroxylation. The data set is classed as in vitro ADME. The settings on record: substrate S-mephenitoin. On the procedure:
as §1, §2, §3

The target of data set [4] is CYP2D6 (Homo sapiens (Human), UniProt P10635). Nature of the data set: CYP inhibition test, pooled human hepatic microsome, dextromethorphan O-demethylation. The data set is classed as in vitro ADME. As to conditions: substrate dextromethorphan. As for the experimental part:
as §1, §2, §3

In data set [5] the target is CYP1A2 (Homo sapiens (Human), UniProt P05177). Put plainly: CYP inhibition test, pooled human hepatic microsome, 7-ethoxyresorufin O-deethylation. Type of data set: in vitro ADME. As to conditions: substrate ethoxyresorufin. As for the experimental part: as §1, §2, §3
CYP1A2, sequence (P05177 whole entry): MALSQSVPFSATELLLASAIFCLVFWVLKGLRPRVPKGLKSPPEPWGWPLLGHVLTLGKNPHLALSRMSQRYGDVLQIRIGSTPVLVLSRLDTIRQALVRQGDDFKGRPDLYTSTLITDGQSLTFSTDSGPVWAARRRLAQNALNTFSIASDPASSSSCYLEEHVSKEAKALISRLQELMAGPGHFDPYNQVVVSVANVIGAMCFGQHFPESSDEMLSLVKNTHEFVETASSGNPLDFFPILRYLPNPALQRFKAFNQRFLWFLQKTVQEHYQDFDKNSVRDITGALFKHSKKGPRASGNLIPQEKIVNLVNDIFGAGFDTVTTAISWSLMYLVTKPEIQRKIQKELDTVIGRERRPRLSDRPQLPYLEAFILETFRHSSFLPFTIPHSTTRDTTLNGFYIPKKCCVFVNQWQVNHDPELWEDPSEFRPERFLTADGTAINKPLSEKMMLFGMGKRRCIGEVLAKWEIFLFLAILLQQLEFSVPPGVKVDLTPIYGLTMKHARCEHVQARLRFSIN
Data set [6] in a line: Solubility test (1% DMSO, artificial intestinal juice pH 6.8). As to conditions: artificial intestinal juice pH 6.8 with 1% DMSO, 25 °C, fassgf or other biorelevant, kinetic from dmso stock, artificial intestinal juice pH 6.8, 25 degrees Celsius. The data set is classed as physicochemical. As for the experimental part:
10 mmol/L compound solution was prepared using DMSO, and then 6 μL of the compound solution was added to 594 μL of artificial intestinal juice in pH 6.8 (to 250 mL of 0.2 mol/L potassium dihydrogen phosphate reagent solution was added 118 mL of 0.2 mol/L NaOH reagent solution and water to provide a final volume of 1000 mL). After standing at 25 degrees Celsius for 16 hours, the mixed solution was filtrated with suction. The filtrate was diluted twice with methanol/water ( 1/1) and then a concentration in the filtration was measured with HPLC or LC/MS/MS by the absolute calibration method.

CYP2C19, sequence (P33261 whole entry): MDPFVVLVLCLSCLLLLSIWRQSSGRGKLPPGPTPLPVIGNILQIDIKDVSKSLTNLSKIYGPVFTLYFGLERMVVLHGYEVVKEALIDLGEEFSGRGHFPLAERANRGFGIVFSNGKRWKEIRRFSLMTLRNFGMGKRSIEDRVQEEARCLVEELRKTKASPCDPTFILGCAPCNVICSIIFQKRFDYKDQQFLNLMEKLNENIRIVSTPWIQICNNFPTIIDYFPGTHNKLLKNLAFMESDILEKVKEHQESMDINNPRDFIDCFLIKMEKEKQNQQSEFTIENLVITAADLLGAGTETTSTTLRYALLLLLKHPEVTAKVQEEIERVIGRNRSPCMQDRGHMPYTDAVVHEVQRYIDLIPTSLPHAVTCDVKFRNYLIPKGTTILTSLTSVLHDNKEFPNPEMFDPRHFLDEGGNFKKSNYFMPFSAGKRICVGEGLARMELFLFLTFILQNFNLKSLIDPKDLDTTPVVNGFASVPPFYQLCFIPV
CYP2C9, sequence (P11712 whole entry): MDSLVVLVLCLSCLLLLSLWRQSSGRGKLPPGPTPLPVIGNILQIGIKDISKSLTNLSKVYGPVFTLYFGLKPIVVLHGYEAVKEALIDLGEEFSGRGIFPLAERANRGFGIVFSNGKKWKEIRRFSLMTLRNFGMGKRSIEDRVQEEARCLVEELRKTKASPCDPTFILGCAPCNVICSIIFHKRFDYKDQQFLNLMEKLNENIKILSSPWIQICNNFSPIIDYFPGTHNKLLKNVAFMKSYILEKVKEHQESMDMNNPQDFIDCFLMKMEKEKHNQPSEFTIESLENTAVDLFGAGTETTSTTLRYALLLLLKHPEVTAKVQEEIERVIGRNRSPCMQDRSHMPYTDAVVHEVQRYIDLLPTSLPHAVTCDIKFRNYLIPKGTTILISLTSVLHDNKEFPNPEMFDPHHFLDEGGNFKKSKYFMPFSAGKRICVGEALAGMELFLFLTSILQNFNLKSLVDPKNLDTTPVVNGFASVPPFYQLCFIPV
CYP2D6, sequence (P10635 whole entry): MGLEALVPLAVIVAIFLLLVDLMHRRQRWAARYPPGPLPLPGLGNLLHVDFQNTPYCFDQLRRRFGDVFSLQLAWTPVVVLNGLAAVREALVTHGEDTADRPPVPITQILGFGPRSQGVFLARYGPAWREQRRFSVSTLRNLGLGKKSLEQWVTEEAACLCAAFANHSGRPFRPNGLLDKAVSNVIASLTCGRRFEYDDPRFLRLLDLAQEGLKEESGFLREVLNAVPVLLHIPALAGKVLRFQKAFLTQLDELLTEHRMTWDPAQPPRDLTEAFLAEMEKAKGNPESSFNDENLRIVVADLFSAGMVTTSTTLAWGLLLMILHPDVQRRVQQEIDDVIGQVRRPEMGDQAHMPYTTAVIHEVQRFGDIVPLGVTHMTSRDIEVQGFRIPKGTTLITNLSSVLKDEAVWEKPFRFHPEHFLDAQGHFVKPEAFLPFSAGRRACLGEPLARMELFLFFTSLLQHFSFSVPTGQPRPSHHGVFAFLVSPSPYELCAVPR

As usually defined, the pIC50 is −log10 of the IC50, conventionally taken in molar units. As usually defined, the solubility is the dissolved amount per volume that the medium holds. High values mean much dissolved substance, low ones little dissolved substance. With `CCn1c(=O)[nH]/c(=N\c2ccc(Oc3ccnc(C(=O)O)c3)cc2)n(Cc2ccc(Cl)cc2)c1=O` [Compound I-1788], the pIC50 was 8.30 in data set [1]; under 4.70 in data set [2]; under 4.70 in data set [3]; under 4.70 in data set [4]; under 4.70 in data set [5]. The solubility at 16 h in data set [6] is over 50 µM.

Regarding `O=c1[nH]/c(=N\c2ccc(Oc3ccon3)cc2)n(Cc2ccc(Cl)cc2)c(=O)n1CC(CO)CO` [Compound I-2291], the pIC50 was 8.52 in data set [1]; under 4.70 in data set [2]; under 4.70 in data set [3]; under 4.70 in data set [4]; under 4.70 in data set [5]. The solubility at 16 h in data set [6] was over 50 µM.

As to `C[C@@H](Cn1c(=O)[nH]/c(=N\c2ccc(OCC3CC3)cc2)n(Cc2ccc(Cl)cc2)c1=O)C(=O)O` [Compound I-0837], the pIC50 in data set [1] is 7.72; in data set [2], under 4.70; in data set [3] it was under 4.70; in data set [4], under 4.70; in data set [5], under 4.70. In addition, in data set [6], the solubility at 16 h was over 50 µM.
